Key:
[1] = tested on: mouse embryonic fibroblasts; experiment: Basal 2-deoxyglucose uptake in fibroblasts; format: cell-based; settings: 3 h, 893 5 or 10 μM
Method: Glucose uptake assays were performed using the Glucose-Glo™ uptake Kit according to manufacturer's instructions (cat # J1342, Promega, Madison, Wis.). For basal glucose uptake in MEFs, cells were plated the night before in 96-well black, clear-bottom plates. Cells were treated for 3 h, washed once in PBS, then pulsed with 1 mM 2-DG in glucose-free media containing their respective drug treatments. After 10 min, the reaction was quenched and developed according to manufacturer's protocol. To assay insulin-stimulated glucose uptake, mature adipocytes in 96-well black clear-bottom plates were serum starved for 16 h. Cells were treated in serum-free media supplemented with 0.2% fatty-acid free BSA for 3 h. Cells were washed once in PBS and incubated in glucose-free media with their respective drug treatments, with or without 100 nM bovine insulin, for 15 min. A concentrated 2-DG stock was added directly to wells for 10 min (1 mM final concentration), then the reaction stopped and developed according to manufacturer's protocol.

AKT = experiment: Insulin-stimulated AKT activation, western blot; format: cell-based, mouse; settings: 3T3-L1 adipocytes; 3 h pre-treatment, C2-ceramide 50 or 100 μM, 893 5 or 10 μM; insulin 100 nM 15 min
Method: 3T3-L1 cells were maintained in DMEM with 10% FBS and 1% penicillin-streptomycin until induced to differentiate. 3T3-L1 pre-adipocytes were differentiated as described in (M. P. Valley, et al., Anal. Biochem. 505: 43-50, 2016, the disclosure of which is incorporated herein by reference) with slight modifications. Briefly, pre-adipocytes were grown to confluence. After 2 d, cells were induced with maintenance media containing 500 μM IBMX (15879, Sigma-Aldrich, St. Louis, Mo.), 1 μM dexamethasone (D4902, Sigma-Aldrich), 5 μg/mL bovine insulin (10516, Sigma-Aldrich), and 5 μM troglitazone (50-115-0786, ApexBio). Media was changed every 2-3 d for 7 d. On day 7 post-induction, media was changed to maintenance media+5 μg/mL bovine insulin. On day 9 post-induction, media was changed to maintenance media. Mature adipocytes were used 12-14 d post-induction for all experiments. […]
Mature adipocytes were serum starved for 16 h then treated with vehicle, ceramide (50 or 100 μM), or sphingolipid-like compound 893 (5 or 10 μM) in serum-free media supplemented with 0.2% fatty-acid free BSA for 3 h after which 100 nM insulin was added for 15 min. […] Protein content was quantified in the supernatant using the Pierce™ BCA Protein Assay Kit (Thermo-Fisher Scientific, Waltham, Mass.). […]

ARF6 = ARF6 (Homo sapiens, UniProt P62330); settings: cited from earlier work
ARF6, sequence (P62330 whole entry, species assumed): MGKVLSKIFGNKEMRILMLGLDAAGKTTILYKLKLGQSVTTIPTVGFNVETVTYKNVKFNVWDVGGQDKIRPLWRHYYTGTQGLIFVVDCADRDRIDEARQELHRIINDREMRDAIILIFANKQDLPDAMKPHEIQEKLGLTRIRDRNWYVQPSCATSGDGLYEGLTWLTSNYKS

CCCCCCCCc1ccc([C@H]2CCN[C@@H]2CO)cc1.Cl [compound 893]
Constitutive glucose uptake [1]: constitutive glucose uptake in fibroblasts was reduced | Insulin-stimulated AKT activation (AKT): but not sphingolipid-like compound 893, interfered with insulin-stimulated AKT activation | Effect on ARF6 (ARF6): inactivates
